From US20260297080A1, “BICYCLIC COMPOUNDS AS CDK INHIBITORS” (BeOne Medicines I GmbH, priority 2022, published 2026)

Key:
CDK1/Cyclin B1 = CDK1/Cyclin B1 (Homo sapiens, UniProt P06493); assay: CDK1/Cyclin B1 Biochemical Assay (TR-FRET), 0.015 mM ATP; conditions: 0.15 μM Rb (Ser780)-biotin substrate, pH7.0, 60 min preincubation, 120 min reaction, room temperature
Method: (§1) CDK2/Cyclin E1 and CDK1/Cyclin B1 Biochemical Assays
(§2) Compounds disclosed herein were tested for inhibition of CDK2/Cyclin E1 or CDK1/Cyclin B1 kinase in an assay based on the time-resolved fluorescence-resonance energy transfer (TR-FRET) methodology. The assay was carried out in 384-well low volume black plates in a reaction mixture containing CDK2/Cyclin E1 or CDK1/Cyclin B1, 0.060 mM ATP for CDK2/Cyclin E1 or 0.015 mM ATP for CDK1/Cyclin B1, 0.15 μM Rb (Ser780)-biotin substrate and 0-10 μM compound in buffer containing 50 mM HEPES pH7.0, 0.02% NaN3, 0.01% BSA, 0.1 mM Orthovanadate, 50 mM MgCl2, 1 mM DTT and 0.005% Tween-20. The kinase was incubated with compound for 60 minutes at room temperature and the reaction was initiated by the addition of ATP and Rb (Ser780)-biotin substrate. After reaction at room temperature for 120 minutes, an equal volume of stop/detection solution was added according to the manufacture's instruction (Cisbio Bioassays). The stop/detection solution contained Streptavidin-XL665 and Anti-pRb (Ser780) mAb-Eu Cryptate in Detection buffer (Cisbio Bioassays). Plates were incubated at room temperature for 60 minutes, and the TR-FRET signals (ex337 nm, em665 nm/620 nm) were recorded on a PHERAstar FSX plate reader (BMG Labtech). The inhibition percentage of CDK2/Cyclin E1 or CDK1/Cyclin B1 kinase activity in presence of increasing concentrations of compounds was calculated based on the ratio of fluorescence at 665 nm to that at 620 nm. The IC50 for each compound was derived from fitting the data to the four-parameter logistic equation by Dotmatics.

CDK2/Cyclin E1 = CDK2/Cyclin E1 (Homo sapiens, UniProt P24941); assay: CDK2/Cyclin E1 Biochemical Assay (TR-FRET), 0.060 mM ATP; conditions: 0.15 μM Rb (Ser780)-biotin substrate, pH7.0, 60 min preincubation, 120 min reaction, room temperature
Method: as §1, §2

Chain of CDK1/Cyclin B1 (P06493 whole entry): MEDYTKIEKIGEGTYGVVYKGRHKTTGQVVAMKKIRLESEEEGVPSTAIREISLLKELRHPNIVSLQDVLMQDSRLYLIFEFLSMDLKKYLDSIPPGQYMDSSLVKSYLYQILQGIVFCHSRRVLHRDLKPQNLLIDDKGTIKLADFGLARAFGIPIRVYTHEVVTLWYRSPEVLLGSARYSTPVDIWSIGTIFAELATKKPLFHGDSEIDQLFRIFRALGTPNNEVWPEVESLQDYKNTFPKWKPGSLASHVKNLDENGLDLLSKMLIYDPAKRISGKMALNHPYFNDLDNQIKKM
Chain of CDK1/Cyclin B1 (P14635 whole entry partner): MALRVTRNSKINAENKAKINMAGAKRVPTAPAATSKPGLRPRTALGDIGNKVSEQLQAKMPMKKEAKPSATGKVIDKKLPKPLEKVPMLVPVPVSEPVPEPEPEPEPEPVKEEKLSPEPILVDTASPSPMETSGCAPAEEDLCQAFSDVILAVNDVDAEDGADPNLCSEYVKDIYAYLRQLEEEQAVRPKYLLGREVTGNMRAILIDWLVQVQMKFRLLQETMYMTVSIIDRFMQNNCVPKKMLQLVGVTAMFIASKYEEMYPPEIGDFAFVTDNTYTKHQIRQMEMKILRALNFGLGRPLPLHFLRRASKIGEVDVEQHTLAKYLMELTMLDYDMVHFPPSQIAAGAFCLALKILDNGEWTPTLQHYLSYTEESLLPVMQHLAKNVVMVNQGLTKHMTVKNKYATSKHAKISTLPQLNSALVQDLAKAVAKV

| IC50 (CDK1/Cyclin B1) | IC50 (CDK2/Cyclin E1) | Compound |
| --- | --- | --- |
| 374 nM | 15 nM | CCCNC(=O)O[C@H]1CC[C@@H](c2cc(Nc3ccc4c(c3Cl)CNS4(=O)=O)n[nH]2)C1 (racemic) [Example 39, cis-3-(3-((4-chloro-1,1-dioxido-2,3-dihydrobenzo[d]isothiazol-5-yl)amino)-1H-pyrazol-5-yl)cyclopentyl propylcarbamate] |
| 154 nM | 2.3 nM | CC1(NC(=O)O[C@H]2CC[C@@H](c3cc(Nc4ccc5c(c4Cl)CNS5(=O)=O)n[nH]3)C2)CC1 (racemic) [Example 40, cis-3-(3-((4-chloro-1,1-dioxido-2,3-dihydrobenzo[d]isothiazol-5-yl)amino)-1H-pyrazol-5-yl)cyclopentyl(1-methylcyclopropyl)carbamate] |
| 431 nM | 9.6 nM | CC[C@H](C)NC(=O)O[C@H]1CC[C@@H](c2cc(Nc3ccc4c(c3F)CN(C3CC3)S4(=O)=O)n[nH]2)C1 (racemic) [Example 117, cis-3-(3-((2-cyclopropyl-4-fluoro-1,1-dioxido-2,3-dihydrobenzo[d]isothiazol-5-yl)amino)-1H-pyrazol-5-yl)cyclopentyl((S)-sec-butyl)carbamate] |
| 345 nM | 3.1 nM | CCCNC(=O)O[C@H]1CC[C@@H](c2cc(Nc3ccc4c(c3F)CN(C3CC3)S4(=O)=O)n[nH]2)C1 (racemic) [Example 118, cis-3-(3-((2-cyclopropyl-4-fluoro-1,1-dioxido-2,3-dihydrobenzo[d]isothiazol-5-yl)amino)-1H-pyrazol-5-yl)cyclopentyl propylcarbamate] |
| 146 nM | 2.7 nM | CC1(NC(=O)O[C@H]2CC[C@@H](c3cc(Nc4ccc5c(c4F)CN(C4CC4)S5(=O)=O)n[nH]3)C2)CC1 (racemic) [Example 119, cis-3-(3-((2-cyclopropyl-4-fluoro-1,1-dioxido-2,3-dihydrobenzo[d]isothiazol-5-yl)amino)-1H-pyrazol-5-yl)cyclopentyl(1-methylcyclopropyl)carbamate] |
| 98 nM | 1.8 nM | CC1(NC(=O)O[C@H]2CC[C@@H](c3cc(Nc4ccc5c(c4F)CN(CCO)S5(=O)=O)n[nH]3)C2)CC1 (racemic) [Example 128, cis-3-(3-((4-fluoro-2-(2-hydroxyethyl)-1,1-dioxido-2,3-dihydrobenzo[d]isothiazol-5-yl)amino)-1H-pyrazol-5-yl)cyclopentyl(1-methylcyclopropyl)carbamate] |
| 104 nM | 1.6 nM | [2H]C([2H])([2H])N1Cc2c(ccc(Nc3cc([C@H]4CC[C@@H](OC(=O)NC5(C)CC5)C4)[nH]n3)c2F)S1(=O)=O (racemic) [Example 132, cis-3-(3-((4-fluoro-2-(methyl-d3)-1,1-dioxido-2,3-dihydrobenzo[d]isothiazol-5-yl)amino)-1H-pyrazol-5-yl)cyclopentyl(1-methylcyclopropyl)carbamate] |
| 333 nM | 1.7 nM | O=C(NCCC(F)(F)F)O[C@H]1CC[C@@H](c2cc(Nc3ccc4c(c3F)CNS4(=O)=O)n[nH]2)C1 (racemic) [Example 154, cis-3-(3-((4-fluoro-1,1-dioxido-2,3-dihydrobenzo[d]isothiazol-5-yl)amino)-1H-pyrazol-5-yl)cyclopentyl(3,3,3-trifluoropropyl)carbamate] |
| 123 nM | 3.1 nM | COCC1(NC(=O)O[C@H]2CC[C@@H](c3cc(Nc4ccc5c(c4F)CNS5(=O)=O)n[nH]3)C2)CC1 (racemic) [Example 158, cis-3-(3-((4-fluoro-1,1-dioxido-2,3-dihydrobenzo[d]isothiazol-5-yl)amino)-1H-pyrazol-5-yl)cyclopentyl(1-(methoxymethyl)cyclopropyl)carbamate] |
| 163 nM | 2.4 nM | CC1(NC(=O)O[C@H]2CC[C@@H](c3cc(Nc4ccc5c(c4F)CNS5(=O)=O)n[nH]3)C2)CCOC1 (mixture of isomers) [Example 162, cis-3-(3-((4-fluoro-1,1-dioxido-2,3-dihydrobenzo[d]isothiazol-5-yl)amino)-1H-pyrazol-5-yl)cyclopentyl(3-methyltetrahydrofuran-3-yl)carbamate] |
| 294 nM | 5 nM | CC1(NC(=O)O[C@H]2CC[C@@H](c3cc(Nc4ccc5c(c4F)CNS5(=O)=O)n[nH]3)C2)COC1 (racemic) [Example 164, cis-3-(3-((4-fluoro-1,1-dioxido-2,3-dihydrobenzo[d]isothiazol-5-yl)amino)-1H-pyrazol-5-yl)cyclopentyl(3-methyloxetan-3-yl)carbamate] |
| 249 nM | 5 nM | CN1c2ccc(Nc3cc([C@@H]4CC[C@H](OC(=O)NC5CCC5)C4)[nH]n3)cc2CS1(=O)=O (racemic) [Example 227, cis-3-(3-((1-methyl-2,2-dioxido-1,3-dihydrobenzo[c]isothiazol-5-yl)amino)-1H-pyrazol-5-yl)cyclopentyl cyclobutylcarbamate] |
| 29 nM | 2.1 nM | CC1(NC(=O)O[C@H]2CC[C@@H](c3cc(Nc4ccc5c(c4)CCS(=O)(=O)N5)n[nH]3)C2)CC1 (racemic) [Example 249, cis-3-(3-((2,2-dioxido-3,4-dihydro-1H-benzo[c][1,2]thiazin-6-yl)amino)-1H-pyrazol-5-yl)cyclopentyl(1-methylcyclopropyl)carbamate] |
| 25 nM | 0.4 nM | CC(C)NC(=O)O[C@H]1CC[C@@H](c2cc(Nc3ccc4c(c3F)CS(=O)(=O)N4)n[nH]2)C1 (racemic) [Example 251, cis-3-(3-((4-fluoro-2,2-dioxido-1,3-dihydrobenzo[c]isothiazol-5-yl)amino)-1H-pyrazol-5-yl)cyclopentyl isopropylcarbamate] |
| 249 nM | 10 nM | CC(C)NC(=O)O[C@H]1CC[C@@H](c2cc(Nc3ccc4c(c3F)CS(=O)(=O)N4CC(C)(C)O)n[nH]2)C1 (racemic) [Example 254, cis-3-(3-((4-fluoro-1-(2-hydroxy-2-methylpropyl)-2,2-dioxido-1,3-dihydrobenzo[c]isothiazol-5-yl)amino)-1H-pyrazol-5-yl)cyclopentyl isopropylcarbamate] |
| 110 nM | 3.2 nM | CCCNC(=O)O[C@H]1CC[C@@H](c2cc(Nc3ccc4c(c3F)CS(=O)(=O)N4C3COC3)n[nH]2)C1 (racemic) [Example 260, cis-3-(3-((4-fluoro-1-(oxetan-3-yl)-2,2-dioxido-1,3-dihydrobenzo[c]isothiazol-5-yl)amino)-1H-pyrazol-5-yl)cyclopentyl propylcarbamate] |
| 49 nM | 1.3 nM | CC[C@H](C)NC(=O)O[C@H]1CC[C@@H](c2cc(Nc3ccc4c(c3F)CS(=O)(=O)N4C3COC3)n[nH]2)C1 (racemic) [Example 261, cis-3-(3-((4-fluoro-1-(oxetan-3-yl)-2,2-dioxido-1,3-dihydrobenzo[c]isothiazol-5-yl)amino)-1H-pyrazol-5-yl)cyclopentyl((S)-sec-butyl)carbamate] |
| 18 nM |  | CC(C)NC(=O)O[C@H]1CC[C@@H](c2cc(Nc3ccc4c(c3F)CS(=O)(=O)C4)n[nH]2)C1 (relative stereo) [Example 317, cis-3-(3-((4-fluoro-2,2-dioxido-1,3-dihydrobenzo[c]thiophen-5-yl)amino)-1H-pyrazol-5-yl)cyclopentyl isopropylcarbamate] |
